Assay results as given in ChEMBL document CHEMBL5500371, “Arginine and tryptophan-rich dendritic antimicrobial peptides that disrupt membranes for bacterial infection in vivo” (Eur J Med Chem, 2024).
≈ marks a conversion by molar mass, not a printed value. Where a SMILES comes first, the peptide text is derived from it. Side-chain parts run from the residue outwards.

Experiments:
[1] = Therapeutic index, ratio of MHC10 for hemolytic activity in mouse erythrocytes preincubated with 10% mouse serum for 1 hr to MIC for Escherichia coli ATCC 25922 preincubated with 10% mouse serum for 1 hr; type: toxicity, cell-based; conditions: mouse erythrocytes, read-out: TI
[2] = Therapeutic index, ratio of MHC10 for hemolytic activity in mouse erythrocytes preincubated with 10% mouse serum for 1 hr to MIC for Staphylococcus aureus ATCC 25923 preincubated with 10% mouse serum for 1 hr; type: toxicity, cell-based; conditions: mouse erythrocytes, read-out: TI
Staphylococcus aureus [3] = experiment: Antibacterial activity against Staphylococcus aureus ATCC 25923 assessed as inhibition of bacterial growth incubated for 20 hrs in presence of ZnCl2 by broth microdilution method (reference value: 8 microM); type: functional
Staphylococcus aureus [4] = experiment: Antibacterial activity against Staphylococcus aureus ATCC 25923 assessed as inhibition of bacterial growth incubated for 20 hrs in presence of NaCl by broth microdilution method (reference value: 8 microM); type: functional
Escherichia coli [5] = experiment: Antibacterial activity against Escherichia coli ATCC 25922 assessed as inhibition of bacterial growth incubated for 20 hrs by broth microdilution method; type: functional
Staphylococcus aureus [6] = experiment: Antibacterial activity against Staphylococcus aureus ATCC 25923 assessed as inhibition of bacterial growth incubated for 20 hrs in presence of FeCl3 by broth microdilution method (reference value: 8 microM); type: functional
Staphylococcus aureus [7] = experiment: Antibacterial activity against Staphylococcus aureus ATCC 25923 assessed as inhibition of bacterial growth by measuring fold increase in MIC incubated for 20 hrs in presence of NaCl by broth microdilution method relative to control; type: functional
Staphylococcus aureus [8] = experiment: Antibacterial activity against Staphylococcus aureus ATCC 25923 assessed as inhibition of bacterial growth preincubated with 10% mouse serum for 6 hrs and measured after 20 hrs by broth microdilution method; type: functional; conditions: time 21 hrs
Staphylococcus aureus [9] = experiment: Antibacterial activity against Staphylococcus aureus ATCC 25923 assessed as inhibition of bacterial growth incubated for 20 hrs in presence of KCl by broth microdilution method (reference value: 8 microM); type: functional
Staphylococcus aureus [10] = experiment: Antibacterial activity against Staphylococcus aureus ATCC 25923 assessed as inhibition of bacterial growth by measuring fold increase in MIC incubated for 20 hrs in presence of KCl by broth microdilution method relative to control; type: functional
Escherichia coli [11] = experiment: Antibacterial activity against Escherichia coli ATCC 25922 assessed as inhibition of bacterial growth incubated for 20 hrs in presence of KCl by broth microdilution method (reference value: 8 microM); type: functional
Staphylococcus aureus [12] = experiment: Antibacterial activity against Staphylococcus aureus ATCC 25923 assessed as inhibition of bacterial growth by measuring fold increase in MIC incubated for 20 hrs in presence of FeCl3 by broth microdilution method relative to control; type: functional
[13] = Therapeutic index, ratio of MHC10 for hemolytic activity in mouse erythrocytes preincubated with 10% mouse serum for 6 hrs to MIC for Staphylococcus aureus ATCC 25923 preincubated with 10% mouse serum for 6 hrs; type: toxicity, cell-based; conditions: mouse erythrocytes, read-out: TI
Staphylococcus aureus [14] = experiment: Antibacterial activity against Staphylococcus aureus ATCC 25923 assessed as inhibition of bacterial growth by measuring fold increase in MIC incubated for 20 hrs in presence of MgCl2 by broth microdilution method relative to control; type: functional
Staphylococcus aureus [15] = experiment: Antibacterial activity against Staphylococcus aureus ATCC 25923 assessed as inhibition of bacterial growth incubated for 20 hrs by broth microdilution method; type: functional
Escherichia coli [16] = experiment: Antibacterial activity against Escherichia coli ATCC 25922 assessed as inhibition of bacterial growth incubated for 20 hrs in presence of NaCl by broth microdilution method (reference value: 8 microM); type: functional
Klebsiella pneumoniae = experiment: Antibacterial activity against Klebsiella pneumoniae ATCC 700603 assessed as inhibition of bacterial growth incubated for 20 hrs by broth microdilution method; type: functional
[17] = Stability in mouse serum assessed as half life at 10 mM measured upto 24 hrs by RP-HPLC analysis; type: ADME, cell-free
Escherichia coli [18] = experiment: Antibacterial activity against Escherichia coli ATCC 25922 assessed as inhibition of bacterial growth preincubated with 10% mouse serum for 6 hrs and measured after 20 hrs by broth microdilution method; type: functional; conditions: time 26 hrs
Staphylococcus aureus [19] = experiment: Antibacterial activity against Staphylococcus aureus ATCC 25923 assessed as inhibition of bacterial growth incubated for 20 hrs in presence of MgCl2 by broth microdilution method (reference value: 8 microM); type: functional
[20] = Hemolytic activity in mouse erythrocytes at 256 uM preincubated for 1 to 6 hr with 10% mouse serum and measured after 1 hr by absorbance based analysis; type: toxicity, cell-based, Erythrocyte; conditions: time 1-7 hrs, read-out: Activity
Escherichia coli [21] = experiment: Antibacterial activity against Escherichia coli ATCC 25922 assessed as inhibition of bacterial growth incubated for 20 hrs in presence of MgCl2 by broth microdilution method (reference value: 8 microM); type: functional
Pseudomonas aeruginosa = experiment: Antibacterial activity against Pseudomonas aeruginosa ATCC 27853 assessed as inhibition of bacterial growth incubated for 20 hrs by broth microdilution method; type: functional
Escherichia coli [22] = experiment: Antibacterial activity against Escherichia coli ATCC 25922 assessed as inhibition of bacterial growth incubated for 20 hrs in presence of FeCl3 by broth microdilution method (reference value: 8 microM); type: functional
Bacillus subtilis = experiment: Antibacterial activity against Bacillus subtilis ATCC 23857 assessed as inhibition of bacterial growth incubated for 20 hrs by broth microdilution method; type: functional
Staphylococcus aureus [23] = experiment: Antibacterial activity against Staphylococcus aureus ATCC 25923 assessed as inhibition of bacterial growth by measuring fold increase in MIC incubated for 20 hrs in presence of ZnCl2 by broth microdilution method relative to control; type: functional
Acinetobacter baumannii = experiment: Antibacterial activity against Acinetobacter baumannii ATCC 19606 assessed as inhibition of bacterial growth incubated for 20 hrs by broth microdilution method; type: functional
Staphylococcus aureus [24] = experiment: Antibacterial activity against Staphylococcus aureus ATCC 25923 assessed as inhibition of bacterial growth preincubated with 10% mouse serum for 1 hr and measured after 20 hrs by broth microdilution method; type: functional; conditions: time 21 hrs
Erythrocyte = experiment: Hemolytic activity in mouse erythrocytes assessed as 10% hemolysis incubated for 1 hr by absorbance based analysis; type: toxicity, cell-based
[25] = Therapeutic index, ratio of MHC10 for hemolytic activity in mouse erythrocytes preincubated with 10% mouse serum for 6 hrs to MIC for Escherichia coli ATCC 25922 preincubated with 10% mouse serum for 6 hrs; type: toxicity, cell-based; conditions: mouse erythrocytes, read-out: TI
[26] = Cytotoxicity against HEK293T cells assessed as cell death measured after 1 hr by resazurin dye based analysis; type: toxicity, HEK-293T; conditions: human, HEK293T cells
Escherichia coli [27] = experiment: Antibacterial activity against Escherichia coli ATCC 25922 assessed as inhibition of bacterial growth preincubated with 10% mouse serum for 1 hr and measured after 20 hrs by broth microdilution method; type: functional; conditions: time 21 hrs
Escherichia coli [28] = experiment: Antibacterial activity against Escherichia coli ATCC 25922 assessed as inhibition of bacterial growth incubated for 20 hrs in presence of ZnCl2 by broth microdilution method (reference value: 8 microM); type: functional
Escherichia coli [29] = experiment: Antibacterial activity against Escherichia coli ATCC 25922 assessed as inhibition of bacterial growth incubated for 20 hrs in presence of KCl by broth microdilution method (reference value: 16 microM); type: functional
Escherichia coli [30] = experiment: Antibacterial activity against Escherichia coli ATCC 25922 assessed as inhibition of bacterial growth incubated for 20 hrs in presence of ZnCl2 by broth microdilution method (reference value: 16 microM); type: functional
Escherichia coli [31] = experiment: Antibacterial activity against Escherichia coli ATCC 25922 assessed as inhibition of bacterial growth incubated for 20 hrs in presence of FeCl3 by broth microdilution method (reference value: 16 microM); type: functional
Escherichia coli [32] = experiment: Antibacterial activity against Escherichia coli ATCC 25922 assessed as inhibition of bacterial growth incubated for 20 hrs in presence of NaCl by broth microdilution method (reference value: 16 microM); type: functional
Escherichia coli [33] = experiment: Antibacterial activity against Escherichia coli ATCC 25922 assessed as inhibition of bacterial growth incubated for 20 hrs in presence of MgCl2 by broth microdilution method (reference value: 16 microM); type: functional

| MIC (Staphylococcus aureus [3]) | MIC (Staphylococcus aureus [4]) | MIC (Escherichia coli [5]) | MIC (Staphylococcus aureus [6]) | MIC (Staphylococcus aureus [8]) | MIC (Staphylococcus aureus [9]) | MIC (Staphylococcus aureus [15]) | MIC (Klebsiella pneumoniae) | half-life at 10000 µM [17] | MIC (Escherichia coli [18]) | MIC (Staphylococcus aureus [19]) | MIC (Pseudomonas aeruginosa) | Molecule | selectivity ratio [1] | selectivity ratio [2] | fold change (FC) (Staphylococcus aureus [7]) | fold change (FC) (Staphylococcus aureus [10]) | fold change (FC) (Staphylococcus aureus [12]) | selectivity ratio [13] | fold change (FC) (Staphylococcus aureus [14]) | hemolysis at 1 h, 256 µM [20] | also measured |
| --- | --- | --- | --- | --- | --- | --- | --- | --- | --- | --- | --- | --- | --- | --- | --- | --- | --- | --- | --- | --- | --- |
| 8 µM | 8 µM | 8 µM (≈ 12.1 µg/mL) | 8 µM | 8 µM (≈ 12.1 µg/mL) | 8 µM | 8 µM (≈ 12.1 µg/mL) | 128 µM (≈ 194 µg/mL) | 32.4 min | 16 µM (≈ 24.2 µg/mL) | 8 µM | 32 µM (≈ 48.5 µg/mL) | N=C(N)NCCC[C@H](NC(=O)[C@H](CCCNC(=N)N)NC(=O)[C@H](CCCNC(=N)N)NC(=O)[C@H](CCCNC(=N)N)NC(=O)[C@H](CCCCNC(=O)[C@H](Cc1c[nH]c2ccccc12)NC(=O)[C@@H](N)Cc1c[nH]c2ccccc12)NC(=O)[C@H](Cc1c[nH]c2ccccc12)NC(=O)[C@@H](N)Cc1c[nH]c2ccccc12)C(N)=O (H-WWK([Trp-Trp])RRRR-NH2) | 0.5 | 0.5 | <=2 | <=2 | <=2 | 0.13 | <=2 | < 10% | MIC (Escherichia coli [11]): 8 µM; MIC (Escherichia coli [16]): 16 µM; MIC (Escherichia coli [21]): 8 µM; MIC (Escherichia coli [22]): 8 µM; MIC (Bacillus subtilis): 8 µM (≈ 12.1 µg/mL); fold change (FC) (Staphylococcus aureus [23]): <=2; MIC (Acinetobacter baumannii): 64 µM (≈ 96.9 µg/mL); MIC (Staphylococcus aureus [24]): 2 µM (≈ 3.03 µg/mL); MHC10 (Erythrocyte): > 256 µM; selectivity ratio [25]: 0.06; CC50 at 1 h [26]: > 128 µM; MIC (Escherichia coli [27]): 2 µM (≈ 3.03 µg/mL); MIC (Escherichia coli [28]): 8 µM |
| 8 µM | 8 µM | 32 µM | 8 µM | 8 µM | 8 µM | 8 µM | 64 µM | 85.3 min | 8 µM | 8 µM | 8 µM | H-WWWWKRRRR-NH2 | 0.5 | 0.5 | <=2 | <=2 | <=2 | 0.13 | <=2 | < 10% | MIC (Escherichia coli [29]): 8 µM; MIC (Escherichia coli [30]): 16 µM; MIC (Escherichia coli [31]): 16 µM; MIC (Escherichia coli [32]): 32 µM; MIC (Escherichia coli [33]): 8 µM; MIC (Bacillus subtilis): 8 µM; fold change (FC) (Staphylococcus aureus [23]): <=2; MIC (Acinetobacter baumannii): 32 µM; MIC (Staphylococcus aureus [24]): 2 µM; MHC10 (Erythrocyte): > 256 µM; selectivity ratio [25]: 0.13; CC50 at 1 h [26]: > 128 µM; MIC (Escherichia coli [27]): 2 µM |
